The record followed here is patent publication US11759462B2, “Spirocyclic compounds as tryptophan hydroxylase inhibitors” (priority 2013, dated 2023).

Like-named read-outs stand apart in the source and are kept apart here. Some results are limits rather than exact numbers.

This experiment has as its target T1, Recombinant human TPH1 (MBP tagged) (Homo sapiens, UniProt P17752).
T1 construct: cloning full length human TPH1 cDNA in to a bacterial pMAL-c5E expression vector; made in house; host or cells: E. coli BL21 (DE3)
T1 sequence (P17752 1-444): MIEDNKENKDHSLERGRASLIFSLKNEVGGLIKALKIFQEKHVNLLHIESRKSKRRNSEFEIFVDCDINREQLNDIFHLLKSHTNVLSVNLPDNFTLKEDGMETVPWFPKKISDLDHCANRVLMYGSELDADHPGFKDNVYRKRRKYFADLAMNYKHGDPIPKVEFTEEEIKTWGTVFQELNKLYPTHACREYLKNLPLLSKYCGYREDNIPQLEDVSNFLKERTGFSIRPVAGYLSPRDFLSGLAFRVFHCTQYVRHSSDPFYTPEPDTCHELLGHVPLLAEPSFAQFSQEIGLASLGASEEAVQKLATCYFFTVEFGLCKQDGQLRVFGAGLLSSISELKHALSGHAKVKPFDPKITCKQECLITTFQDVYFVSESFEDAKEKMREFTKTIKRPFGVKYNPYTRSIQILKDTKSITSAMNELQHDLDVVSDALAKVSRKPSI
Nature of the experiment: TPH1 in vitro inhibition assay (kinetic fluorescence). It counts as biochemical. A digest of the protocol:
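Final mix: 15 nM MBP-TPH1, 30 μM Trp, 36 μM 6-methyltetrahydropterin, 25 μM ferrous ammonium sulfate, 50 mM MES pH 7.1, 1% DMSO, room temperature.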

Where [1] appears, read: read-out: TPH1 Range (TPH1 inhibition IC50).
Setting [2] is: TPH1 Range (TPH1 inhibition IC50).

In the case of `Cc1ccc(-c2cc(Cl)ccc2[C@@H](Oc2cc(N3CCC4(CC3)CN[C@H](C(=O)O)C4)nc(N)n2)C(F)(F)F)cc1` [Example 34bx, (S)-8-(2-amino-6-((R)-1-(5-chloro-4′-methyl-[1,1′-biphenyl]-2-yl)-2,2,2-trifluoroethoxy)pyrimidin-4-yl)-2,8-diazaspiro[4.5]decane-3-carboxylic acid], under setting [1], the IC50 lay within 50 to 300 nM. On the same count and under the same terms, under `Nc1nc(O[C@H](c2ccc(Cl)cc2C2=CCCCC2)C(F)(F)F)cc(N2CCC3(CC2)CN[C@H](C(=O)O)C3)n1` [Example 34by, (S)-8-(2-amino-6-((R)-1-(5-chloro-2′,3′,4′,5′-tetrahydro-[1,1′-biphenyl]-2-yl)-2,2,2-trifluoroethoxy)pyrimidin-4-yl)-2,8-diazaspiro[4.5]decane-3-carboxylic acid] stands 50 to 300 nM.

For the compound `Nc1nc(O[C@H](c2ccc(Cl)cc2-c2ccccc2)C(F)(F)F)cc(N2CCC3(CC2)CN[C@H](C(=O)O)C3)n1` [Example 34c, (S)-8-(2-amino-6-((R)-1-(5-chloro-[1,1′-biphenyl]-2-yl)-2,2,2-trifluoroethoxy)pyrimidin-4-yl)-2,8-diazaspiro[4.5]decane-3-carboxylic acid], the IC50 under setting [2] was 50 to 300 nM. As for `Nc1nc(O[C@H](c2ccc(Cl)cc2-c2cccc(C(=O)N3CCCC3)c2)C(F)(F)F)cc(N2CCC3(CC2)CN[C@H](C(=O)O)C3)n1` [Example 34ca, (S)-8-(2-amino-6-((R)-1-(5-chloro-3′-(pyrrolidine-1-carbonyl)-[1,1′-biphenyl]-2-yl)-2,2,2-trifluoroethoxy)pyrimidin-4-yl)-2,8-diazaspiro[4.5]decane-3-carboxylic acid], the IC50 under setting [1] is 50 to 300 nM. The same measure, in the same setting: under `Nc1nc(O[C@H](c2ccc(Cl)cc2-c2cccc(OC3CCCC3)c2)C(F)(F)F)cc(N2CCC3(CC2)CN[C@H](C(=O)O)C3)n1` [Example 34cb, (S)-8-(2-amino-6-((R)-1-(5-chloro-3′-(cyclopentyloxy)-[1,1′-biphenyl]-2-yl)-2,2,2-trifluoroethoxy)pyrimidin-4-yl)-2,8-diazaspiro[4.5]decane-3-carboxylic acid] stands 50 to 300 nM.

For the compound `Nc1nc(O[C@H](c2ccc(Cl)cc2-c2cccc(C(=O)NC3CCC(O)CC3)c2)C(F)(F)F)cc(N2CCC3(CC2)CN[C@H](C(=O)O)C3)n1` (stereo partly drawn) [Example 34cc, (S)-8-(2-amino-6-((R)-1-(5-chloro-3′-(((1R,4R)-4-hydroxycyclohexyl)carbamoyl)-[1,1′-biphenyl]-2-yl)-2,2,2-trifluoroethoxy)pyrimidin-4-yl)-2,8-diazaspiro[4.5]decane-3-carboxylic acid], the IC50 under setting [1] was in the range of 50 to 300 nM. Turning to `CCc1cccc(-c2cc(Cl)ccc2[C@@H](Oc2cc(N3CCC4(CC3)CN[C@H](C(=O)O)C4)nc(N)n2)C(F)(F)F)c1` [Example 34cd, (S)-8-(2-amino-6-((R)-1-(5-chloro-3′-ethyl-[1,1′-biphenyl]-2-yl)-2,2,2-trifluoroethoxy)pyrimidin-4-yl)-2,8-diazaspiro[4.5]decane-3-carboxylic acid], the IC50 under setting [1] lay in the range of 50 to 300 nM. The same measure, in the same setting: the figure for `Nc1nc(O[C@H](c2ccc(Cl)cc2-c2cccc(C(=O)NCCN3CCCC3)c2)C(F)(F)F)cc(N2CCC3(CC2)CN[C@H](C(=O)O)C3)n1` [Example 34cf, (S)-8-(2-amino-6-((R)-1-(5-chloro-3′-((2-(pyrrolidin-1-yl)ethyl)carbamoyl)-[1,1′-biphenyl]-2-yl)-2,2,2-trifluoroethoxy)pyrimidin-4-yl)-2,8-diazaspiro[4.5]decane-3-carboxylic acid] is 300 to 3000 nM. Turning to `Nc1nc(O[C@H](c2ccc(Cl)cc2-c2cccc(C(=O)N3CCOCC3)c2)C(F)(F)F)cc(N2CCC3(CC2)CN[C@H](C(=O)O)C3)n1` [Example 34cg, (S)-8-(2-amino-6-((R)-1-(5-chloro-3′-(morpholine-4-carbonyl)-[1,1′-biphenyl]-2-yl)-2,2,2-trifluoroethoxy)pyrimidin-4-yl)-2,8-diazaspiro[4.5]decane-3-carboxylic acid], under setting [1], the IC50 was in the range of 50 to 300 nM. The same measure, in the same setting: under `CN1CCN(C(=O)c2cccc(-c3cc(Cl)ccc3[C@@H](Oc3cc(N4CCC5(CC4)CN[C@H](C(=O)O)C5)nc(N)n3)C(F)(F)F)c2)CC1` [Example 34ch, (S)-8-(2-amino-6-((R)-1-(5-chloro-3′-(4-methylpiperazine-1-carbonyl)-[1,1′-biphenyl]-2-yl)-2,2,2-trifluoroethoxy)pyrimidin-4-yl)-2,8-diazaspiro[4.5]decane-3-carboxylic acid] stands under 50 nM; under `Cc1ncc(-c2cc(Cl)ccc2[C@@H](Oc2cc(N3CCC4(CC3)CN[C@H](C(=O)O)C4)nc(N)n2)C(F)(F)F)s1` [Example 34ci, (S)-8-(2-amino-6-((R)-1-(4-chloro-2-(2-methylthiazol-5-yl)phenyl)-2,2,2-trifluoroethoxy)pyrimidin-4-yl)-2,8-diazaspiro[4.5]decane-3-carboxylic acid], 50 to 300 nM; under `Cn1cccc(-c2cc(Cl)ccc2[C@@H](Oc2cc(N3CCC4(CC3)CN[C@H](C(=O)O)C4)nc(N)n2)C(F)(F)F)c1=O` [Example 34cj, (S)-8-(2-amino-6-((R)-1-(4-chloro-2-(1-methyl-2-oxo-1,2-dihydropyridin-3-yl)phenyl)-2,2,2-trifluoroethoxy)pyrimidin-4-yl)-2,8-diazaspiro[4.5]decane-3-carboxylic acid], 50 to 300 nM.

In the case of `CNS(=O)(=O)c1cccc(-c2cc(Cl)ccc2[C@@H](Oc2cc(N3CCC4(CC3)CN[C@H](C(=O)O)C4)nc(N)n2)C(F)(F)F)c1` [Example 34ck, (S)-8-(2-amino-6-((R)-1-(5-chloro-3′-(N-methylsulfamoyl)-[1,1′-biphenyl]-2-yl)-2,2,2-trifluoroethoxy)pyrimidin-4-yl)-2,8-diazaspiro[4.5]decane-3-carboxylic acid], the IC50 under setting [1] lay in the range of 50 to 300 nM.

Regarding `CN(C)S(=O)(=O)c1cccc(-c2cc(Cl)ccc2[C@@H](Oc2cc(N3CCC4(CC3)CN[C@H](C(=O)O)C4)nc(N)n2)C(F)(F)F)c1` [Example 34cl, (S)-8-(2-amino-6-((R)-1-(5-chloro-3′-(N,N-dimethylsulfamoyl)-[1,1′-biphenyl]-2-yl)-2,2,2-trifluoroethoxy)pyrimidin-4-yl)-2,8-diazaspiro[4.5]decane-3-carboxylic acid], the IC50 under setting [2] lay in the range of 50 to 300 nM. On to `CNC(=O)c1cccc(-c2cc(Cl)ccc2[C@@H](Oc2cc(N3CCC4(CC3)CN[C@H](C(=O)O)C4)nc(N)n2)C(F)(F)F)c1` [Example 34cm, (S)-8-(2-amino-6-((R)-1-(5-chloro-3′-(methylcarbamoyl)-[1,1′-biphenyl]-2-yl)-2,2,2-trifluoroethoxy)pyrimidin-4-yl)-2,8-diazaspiro[4.5]decane-3-carboxylic acid], for which the IC50 under setting [1] fell in the range of 50 to 300 nM.

Consider `CN(C)C(=O)c1cccc(-c2cc(Cl)ccc2[C@@H](Oc2cc(N3CCC4(CC3)CN[C@H](C(=O)O)C4)nc(N)n2)C(F)(F)F)c1` [Example 34cn, (S)-8-(2-amino-6-((R)-1-(5-chloro-3′-(dimethylcarbamoyl)-[1,1′-biphenyl]-2-yl)-2,2,2-trifluoroethoxy)pyrimidin-4-yl)-2,8-diazaspiro[4.5]decane-3-carboxylic acid], for which the IC50 under setting [1] was 50 to 300 nM. On the same count and under the same terms, the figure for `CCN(CC)C(=O)c1cccc(-c2cc(Cl)ccc2[C@@H](Oc2cc(N3CCC4(CC3)CN[C@H](C(=O)O)C4)nc(N)n2)C(F)(F)F)c1` [Example 34co, (S)-8-(2-amino-6-((R)-1-(5-chloro-3′-(diethylcarbamoyl)-[1,1′-biphenyl]-2-yl)-2,2,2-trifluoroethoxy)pyrimidin-4-yl)-2,8-diazaspiro[4.5]decane-3-carboxylic acid] is 50 to 300 nM; for `Nc1nc(O[C@H](c2ccc(Cl)cc2-c2cccc3[nH]cnc23)C(F)(F)F)cc(N2CCC3(CC2)CN[C@H](C(=O)O)C3)n1` [Example 34cp, (S)-8-(6-((R)-1-(2-(1H-benzo[d]imidazol-4-yl)-4-chlorophenyl)-2,2,2-trifluoroethoxy)-2-aminopyrimidin-4-yl)-2,8-diazaspiro[4.5]decane-3-carboxylic acid] it is 50 to 300 nM; for `Nc1nc(O[C@H](c2ccc(Cl)cc2-c2cccc(C(=O)N3CCNCC3)c2)C(F)(F)F)cc(N2CCC3(CC2)CN[C@H](C(=O)O)C3)n1` [Example 34cq, (S)-8-(2-amino-6-((R)-1-(5-chloro-3′-(piperazine-1-carbonyl)-[1,1′-biphenyl]-2-yl)-2,2,2-trifluoroethoxy)pyrimidin-4-yl)-2,8-diazaspiro[4.5]decane-3-carboxylic acid] it is under 50 nM. Same read-out and setting: the figure for `Nc1nc(O[C@H](c2ccc(Cl)cc2-c2cccc(C(=O)N3CCN(C4CC4)CC3)c2)C(F)(F)F)cc(N2CCC3(CC2)CN[C@H](C(=O)O)C3)n1` [Example 34cr, (S)-8-(2-amino-6-((R)-1-(5-chloro-3′-(4-cyclopropylpiperazine-1-carbonyl)-[1,1′-biphenyl]-2-yl)-2,2,2-trifluoroethoxy)pyrimidin-4-yl)-2,8-diazaspiro[4.5]decane-3-carboxylic acid] is 50 to 300 nM; for `Nc1nc(O[C@H](c2ccc(Cl)cc2-c2ccccn2)C(F)(F)F)cc(N2CCC3(CC2)CN[C@H](C(=O)O)C3)n1` [Example 34cs, (S)-8-(2-amino-6-((R)-1-(4-chloro-2-(pyridin-2-yl)phenyl)-2,2,2-trifluoroethoxy)pyrimidin-4-yl)-2,8-diazaspiro[4.5]decane-3-carboxylic acid] it is 50 to 300 nM.
